This note sets out measurements from patent US20030149084A1, “Cytostatic agents” (priority 1998, published 2003).

The first series concerns human histiocytic lymphoma cell line (U937). Kind of series: U937 cell proliferation assay (methyl-3H thymidine incorporation). In kind it is cell-based. The conditions noted are these: Homo sapiens, U-937, U937 cells; test compound 6 μM; 72 hours in culture, 3 hours pulse; control DMSO 0.08%; n=6. The protocol: The compounds of examples 1 to 10 were tested the following cell proliferation assay, to determine their respective capacities to inhibit proliferation.
A human histiocytic lymphoma cell line (U937) was seeded into 30 mm^2 tissue culture wells, in the appropriate culture medium supplemented with 10% fetal calf serum at a density of 250 cells/mm^2. Six hours later the test compounds were added in the same culture medium to the cells to give a final concentration of 6 μM. Control wells contained cells supplemented with the same culture medium containing the equivalent amount of drug vehicle, which in this case was DMSO at a final concentration of 0.08%. After 72 hours in culture the cells were pulsed for 3 hours with methyl-^3H Thymidine (20 μCi/ml) and then harvested onto filter mats and DNA associated radioactivity counted. Results are expressed as percentage of control methyl-^3H Thydimine incorporation (n=6±1 stdv).
Background: Incorporation of labelled thymidine or its analogues reports DNA synthesis.
`CCCC[C@H](CN(O)C=O)C(=O)N[C@H](C(=O)OCCOC)C(C)(C)C` [Example 16, 2S-{2R-[(Formyl-hydroxy-amino)-methyl]-hexanoylamino}-3,3-dimethyl Butyric Acid 2-methoxy-ethyl Ester] yielded an activity at 6 µM of 89%.
On the same count and under the same terms, to `CCCC[C@H](CN(O)C=O)C(=O)N[C@H](C(=O)OC)c1ccccc1` [Example 20, S-{2R-[(Formyl-hydroxy-amino)-methyl]-hexanoylamino}-2-phenyl Acetic Acid Methyl Ester] belongs 53%.
Turning to `CCC[C@@H]([C@@H](Cc1ccccc1)C(=O)N[C@H](C(=O)OC1CCCC1)c1ccccc1)N(O)C=O` [Example 28, S-[2R-Benzyl-3S-(formyl-hydroxy-amino)hexanoylamino]-phenyl-acetic Acid Cyclopentyl Ester], the activity at 6 µM worked out at 0%.
On to `CCC[C@@H]([C@@H](Cc1ccccc1)C(=O)N[C@H](C(=O)OCCOC)c1ccccc1)N(O)C=O` [Example 29, S-[2R-Benzyl-3S-(formyl-hydroxy-amino)hexanoylamino]-phenyl-acetic Acid Methoxyethyl Ester], for which the activity at 6 µM worked out at 0%.
On the same count and under the same terms, the same measure for `CCCC[C@H](CN(O)C=O)C(=O)N[C@H](C(=O)OCC)c1ccccc1` [Example 10, 2S-{2R-[(Formyl-hydroxy-amino)-methyl]-hexanoylamino}-2-phenyl Acetic Acid Ethyl Ester]: 7%; for `CCCC[C@H](CN(O)C=O)C(=O)N[C@@H](Cc1ccccc1)C(=O)OC(C)C` [Example 19, 2S-{2R-[(Formyl-hydroxy-amino)methyl]-hexanoylamino}-3-phenyl-propionic Acid Iso-Propyl Ester]: 0%.
On to `CCCC[C@H](CN(O)C=O)C(=O)N[C@H](C(=O)OC(C)C)c1ccccc1` [Example 11, S-{2R-[(Formyl-hydroxy-amino)-methyl]-hexanoylamino}-2-phenyl Acetic Acid Iso-Propyl Ester], for which the activity at 6 µM came out at 36%.
In turn, `CCC[C@@H]([C@@H](Cc1ccccc1)C(=O)N[C@@H](COC(C)(C)C)C(=O)OC1CCCC1)N(O)C=O` [Example 24, 2S-[2R-Benzyl-3S-(formyl-hydroxy-amino)-hexanoylamino]-3-tert-butoxypropionic Acid Cyclopentyl Ester] had an activity at 6 µM of 0%.
The same measure, in the same setting: the same measure for `CCC[C@@H]([C@@H](CC(C)C)C(=O)N[C@H](C(=O)OC1CCCC1)c1ccccc1)N(O)C=O` [Example 33, S-[3S-(Formyl-hydroxy-amino)-2R-isobutyl-hexanoylamino]-phenyl-acetic Acid Cyclopentyl Ester]: 0%; for `CCCC[C@H](CN(O)C=O)C(=O)N[C@@H](Cc1ccccc1)C(=O)OC(C)(C)C` [Example 22, 2S-{2R-[(Formyl-hydroxy-amino)-methyl]-hexanoylamino}-3-phenyl-propionic Acid Tert-Butyl Ester]: 53%; for `CCCC[C@H](CN(O)C=O)C(=O)N[C@H](C(=O)OC1CCC1)C(C)(C)C` [Example 14, 2S-{2R-[(Formyl-hydroxy-amino)-methyl]-hexanoylamino}-3,3-dimethyl Butyric Acid Cyclobutyl Ester]: 74%.
As to `CCCC[C@H](CN(O)C=O)C(=O)N[C@@H](Cc1ccccc1)C(=O)OCC` [Example 8, 2S-{2R-[(Formyl-hydroxy-amino)-methyl]-hexanoylamino)-3-phenyl-propionic Acid Ethyl Ester], the activity at 6 µM is 0%.
For the compound `CCCC[C@H](CN(O)C=O)C(=O)N[C@@H](Cc1ccccc1)C(=O)OC` [Example 7], the activity at 6 µM was 0%.
The same measure, in the same setting: the same measure for `CCCC[C@H](CN(O)C=O)C(=O)N[C@H](C(=O)OCC1CCCC1)C(C)(C)C` [Example 18, 2S-{2R-[(Formyl-hydroxy-amino)-methyl]-hexanoylamino}-3,3-dimethyl Butyric Acid Cyclopentylmethyl Ester]: 60%; for `CCCC[C@H](CN(O)C=O)C(=O)N[C@H](C(=O)OCC)C(C)(C)C` [Example 12, 2S-{2R-[(Formyl-hydroxy-amino)-methyl]-hexanoylamino}-3,3-dimethyl Butyric Acid Ethyl Ester]: 77%.
`CCC[C@@H]([C@@H](CC(C)C)C(=O)N[C@@H](COC(C)(C)C)C(=O)OC1CCCC1)N(O)C=O` [Example 23, 3-tert-Butoxy-2S-[3S-(formyl-hydroxy-amino)-2R-isobutyl-hexanoylamino]-propionic Acid Cyclopentyl Ester] displayed an activity at 6 µM of 5%.
Same read-out and setting: to `CCCC[C@H](CN(O)C=O)C(=O)N[C@H](C(=O)OC(C)(C)C)c1ccccc1` [Example 21, S-{2R-[(Formyl-hydroxy-amino)-methyl]-hexanoylamino}-2-phenyl Acetic Acid Tert-Butyl Ester] belongs 90%.
Same read-out and setting: the same measure for `CC(C)C[C@@H](C(=O)N[C@@H](Cc1ccccc1)C(=O)OC1CCCC1)C(C)N(O)C=O` (single isomer, unassigned) [Example 2, diastereomer A]: 21%.
Still for that read-out and setting: to `CCC[C@@H]([C@@H](CC(C)C)C(=O)N[C@H](C(=O)OCC1CCCC1)c1ccccc1)N(O)C=O` [Example 32, S-[3S-(Formyl-hydroxy-amino)-2R-isobutyl-hexanoylamino]-phenyl-acetic Acid Cyclopentylmethyl Ester] belongs 8%; to `CCCC[C@H](CN(O)C=O)C(=O)N[C@H](C(=O)OC(C)C)C(C)(C)C` [Example 9, 2S-{2R-[(Formyl-hydroxy-amino)-methyl]-hexanoylamino}-3,3-dimethyl Butyric Acid Iso-Propyl Ester], 81%.
The compound `CCCC[C@H](CN(O)C=O)C(=O)N[C@H](C(=O)OC1CCCCC1)C(C)(C)C` [Example 15, 2S-{2R-[(Formyl-hydroxy-amino)-methyl]-hexanoylamino}-3,3-dimethyl Butyric Acid Cyclohexyl Ester] yielded an activity at 6 µM of 75%.
For the compound `CCC[C@@H]([C@@H](CC(C)C)C(=O)N[C@H](C(=O)OCCOC)c1ccccc1)N(O)C=O` [Example 26, S-[3S-(Formyl-hydroxy-amino)-2R-isobutyl-hexanoylamino]-phenyl-acetic Acid Methoxyethyl Ester], the activity at 6 µM is 10%.
In the case of `CCC[C@@H]([C@@H](CC(C)C)C(=O)N[C@H](C(=O)OCC)c1ccccc1)N(O)C=O` [Example 25, S-[3S-(Formyl-hydroxy-amino)-2R-isobutyl-hexanoylamino]-phenyl-acetic Acid Ethyl Ester], the activity at 6 µM was 3%.
In turn, `CCCC[C@H](CN(O)C=O)C(=O)N[C@H](C(=O)OC1CCCC1)C(C)(C)C` [Example 3, 2S-{2R-[(Formyl-hydroxy-amino)-methyl]-hexanoylamino}-3,3-dimethyl Butyric Acid Cyclopentyl Ester] had an activity at 6 µM of 80%.
Take `CCCC[C@H](CN(O)C=O)C(=O)N[C@@H](Cc1ccccc1)C(=O)OC1CCCC1` [Example 4, S-{2R-[(Formyl-hydroxy-amino)-methyl]-hexanoylamino}-3-phenyl-propionic Acid Cyclopentyl Ester]: the activity at 6 µM came to 0%.
Still for that read-out and setting: the same measure for `CCC[C@@H]([C@@H](Cc1ccccc1)C(=O)N[C@@H](Cc1ccccc1)C(=O)OC1CCCC1)N(O)C=O` [Example 27, 2S-[2R-Benzyl-3S-(formyl-hydroxy-amino)hexanoylamino]-3-phenyl-propionic Acid Cyclopentyl Ester]: 0%.

The series is the same for the next values; noted with them: U937 cells; 6 μM; comparison compound.
Consider `O=c1[nH]cc(F)c(=O)[nH]1` [5-fluorouracil, reference compound], for which the “activity in the U937 assay, % of that observed with the vehicle alone” value is on record as 50%.

Staying with this series, now noted: U937 cells; test compound 6 μM; 72 hours in culture, 3 hours pulse; control DMSO 0.08%; n=6.
Regarding `CCCC[C@H](CN(O)C=O)C(=O)N[C@H](C(=O)OC1CCCC1)C(C)C` [Example 6, 2S-{2R-[(Formyl-hydroxy-amino)-methyl]-hexanoylamino}-3-methyl Butyric Acid Cyclo-Pentyl Ester], the “% of Control methyl-^3H Thymidine Incorporation” value stood at 0%.

Staying with this series, now noted: U937 cells; test compound 6 μM; 72 hours in culture, 3 hours pulse; control DMSO 0.08%; n=6; 6 µM.
Regarding `O=CN(O)CC(Cc1ccccc1)C(=O)N[C@@H](Cc1ccccc1)C(=O)OC1CCCC1` (single isomer, unassigned) [Example 1, diastereomer B, 2S-[2-benzyl-3-(formyl-hydroxy-amino)propionylamino]-3-phenyl-propionic acid cyclopentyl ester], the “% of Control methyl-^3H Thymidine Incorporation” value is 73%.
Regarding `CC(C)C[C@@H](C(=O)N[C@@H](Cc1ccccc1)C(=O)OC1CCCC1)C(C)N(O)C=O` (single isomer, unassigned) [Example 2, diastereomer B], the “% of Control methyl-^3H Thymidine Incorporation” value is 17%.
For the compound `O=CN(O)CC(Cc1ccccc1)C(=O)N[C@@H](Cc1ccccc1)C(=O)OC1CCCC1` (single isomer, unassigned) [Example 1, diastereomer A, 2S-[2-benzyl-3-(formyl-hydroxy-amino)propionylamino]-3-phenyl-propionic acid cyclopentyl ester], the “% of Control methyl-^3H Thymidine Incorporation” value came out at 0%.

Tested on in the next series: not given
Experiment: not given
Details: not given
By melting point is commonly meant the temperature, or range, at which the solid turns liquid. As for `CCCC[C@H](CN(O)C=O)C(=O)N[C@H](C(=O)OCC)c1ccccc1` [Example 10, 2S-{2R-[(Formyl-hydroxy-amino)-methyl]-hexanoylamino}-2-phenyl Acetic Acid Ethyl Ester], the melting point lay in the range of 134 to 136 °C.
The compound `CCCC[C@H](CN(O)C=O)C(=O)N[C@H](C(=O)OC(C)C)c1ccccc1` [Example 11, S-{2R-[(Formyl-hydroxy-amino)-methyl]-hexanoylamino}-2-phenyl Acetic Acid Iso-Propyl Ester] yielded a melting point of 142 to 145 °C.
The same measure, in the same setting: the same measure for `CCCC[C@H](CN(O)C=O)C(=O)N[C@@H](Cc1ccccc1)C(=O)OC(C)(C)C` [Example 22, 2S-{2R-[(Formyl-hydroxy-amino)-methyl]-hexanoylamino}-3-phenyl-propionic Acid Tert-Butyl Ester]: 95 to 98 °C.
The same measure, in the same setting: the same measure for `CCCC[C@H](CN(O)C=O)C(=O)N[C@H](C(=O)OCC)C(C)(C)C` [Example 12, 2S-{2R-[(Formyl-hydroxy-amino)-methyl]-hexanoylamino}-3,3-dimethyl Butyric Acid Ethyl Ester]: 85 to 87 °C; for `CCCC[C@H](CN(O)C=O)C(=O)N[C@H](C(=O)OC1CCCC1)c1ccccc1` [Example 13, S-{2R-[(Formyl-hydroxy-amino)-methyl]-hexanoylamino}-2-phenyl Acetic Acid Cyclo-Pentyl Ester]: 119 to 120 °C.
